The term IC50 denotes the concentration that gives 50% inhibition.

Our source for the IC50 values is patent US9345742B2, “Aminostatin derivatives for the treatment of arthrosis” (MERCK PATENT GMBH, priority 2011, dated 2016).

Numbered stars: 1 amine (or outer) side, 2 acyl side, 3 side chain; on linkers, the order of the positions; unused ones are H or OH. Square brackets hold non-standard residues; d marks the D form. Peptide text beside a SMILES is read from it. * marks the point of attachment. X1 = N[C@@H](CC(=O)[*:2])[C@H](Cc1ccccc1)N[*:1]; 1Nal = N[C@@H](Cc1cccc2ccccc12)C(=O)O; Tle = CC(C)(C)[C@H](N)C(=O)O; Isovaleryl = CC(C)CC(=O)* Where only a bound is given, the exact number is not on record here.

The target of assay [1] is cathepsin D isolated from the human liver (Homo sapiens (Human), UniProt P07339). Kind of assay: In-vitro fluorescence assay for identification of cathepsin D inhibitors. The format is biochemical. As to conditions: cathepsin D 1.4 nM, pH 5.5; read-out: CatD assay IC50-. The protocol: In order to identify modulators of cathepsin D activity, a continuous enzymatic test was carried out with a synthetic peptide which carries a fluorescent group (MCA=(7-methoxycoumarin-4-yl)acetyl) which is quenched by energy transfer from a Dpn (2,4 dinitrophenyl) group on the same molecule, in Greiner 384-well nb microtitre plates. Cleavage of the peptidic substrate by cathepsin D causes an increase in the fluorescence intensity. In order to determine the efficacy of substances, the time-dependent increase in the fluorescence intensity in the presence of the substance was compared with the time-dependent increase in fluorescence in the absence of substances. The reference substance used was pepstatin A (Sigma-Aldrich). The substrate used was […](Dnp)d-R—NH2 (Enzo Life Sciences, Lörrach). The enzyme employed was cathepsin D isolated from the human liver (Sigma-Aldrich) in a final concentration of 1.4 nM. The test was carried out in 100 mM sodium acetate buffer, 1.25% (v/v) of DMSO, 0.25% (w/v) of Chaps, pH 5.5. 2 μl of each substance solution with serially diluted substance concentration were added to in each case 4 μl of cathepsin D solution and incubated at room temperature for 10 min. The reaction was started by addition of 2 μl of substrate solution (final concentration 5 μM). After carrying out a starting-point fluorescence measurement (excitation wavelength 340 nm/emission wavelength 450 nm) using an Envision multilabel reader (Perkin Elmer), the reaction was incubated at room temperature for 60 min. The amount of peptide fragment cleaved off during the reaction time was subsequently measured by determination of the increase in the fluorescence intensity at 450 nm (excitation wavelength 340 nm).
Sequence of cathepsin D isolated from the human liver (P07339 65-161): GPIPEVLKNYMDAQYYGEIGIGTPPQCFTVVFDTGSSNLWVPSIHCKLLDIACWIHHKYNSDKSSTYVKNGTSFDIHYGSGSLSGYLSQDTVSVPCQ
Sequence of cathepsin D isolated from the human liver (P07339 169-412): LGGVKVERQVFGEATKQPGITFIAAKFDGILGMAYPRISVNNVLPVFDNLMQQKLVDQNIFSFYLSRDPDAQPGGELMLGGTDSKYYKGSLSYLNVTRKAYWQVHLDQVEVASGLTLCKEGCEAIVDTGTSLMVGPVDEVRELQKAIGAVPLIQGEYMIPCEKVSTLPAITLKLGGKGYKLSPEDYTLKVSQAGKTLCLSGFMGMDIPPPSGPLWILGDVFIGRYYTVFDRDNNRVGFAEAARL

A further assay addresses recombinant human renin (Homo sapiens (Human), UniProt P00797). Kind of assay: In-vitro fluorescence assay for identification of renin-inhibitory activity. The format is biochemical. The settings on record: recombinant human renin 10 nM, pH 7.2; read-out: Renin selectivity IC50. The procedure:
In order to identify modulators of renin activity, a continuous enzymatic test was carried out with a synthetic peptide which carries a fluorescent group Edans (=(5-(aminoethyl)aminonaphthalenesulfonate) which is quenched by energy transfer from a Dabcyl (4′-dimethylaminoazobenzene-4-carboxylate) group on the same molecule, in Greiner 384-well microtitre plates. Cleavage of the peptidic substrate by renin causes an increase in the fluorescence intensity. In order to determine the efficacy of substances, the time-dependent increase in the fluorescence intensity in the presence of the substance was compared with the time-dependent increase in fluorescence in the absence of substances. The reference substance used was renin inhibitor 2 (Z-Arg-Arg-Pro-Phe-His-Sta-Ile-His N-Boc-Lys methyl ester Z) (Sigma-Aldrich). The substrate used was renin FRET substrate I (DABCYL-g-Abu-[…]EDANS) (Anaspec, Fremont Calif.). The enzyme employed was recombinant human renin (Proteos, Kalamazoo, Mich.) in a final concentration of 10 nM. The test was carried out in 50 mM Mops buffer, 1.5% (v/v) of DMSO, 0.1% (w/v) of Igepal®, pH 7.2, 0.5% (w/v) of BSA. 2 μl of each substance solution with serially diluted substance concentration were added to in each case 4 μl of renin solution and incubated at room temperature for 15 min. The reaction was started by addition of 4 μl of substrate solution (final concentration 5 μM). After carrying out a starting-point fluorescence measurement (excitation wavelength 340 nm/emission wavelength 495 nm) using an Envision multilabel reader (Perkin Elmer), the reaction was incubated at 37° C. for 60 min. The amount of peptide fragment cleaved off during the reaction time was subsequently measured by determination of the increase in the fluorescence intensity at 495 nm (excitation wavelength 340 nm).

Sequence of recombinant human renin (P00797 67-406): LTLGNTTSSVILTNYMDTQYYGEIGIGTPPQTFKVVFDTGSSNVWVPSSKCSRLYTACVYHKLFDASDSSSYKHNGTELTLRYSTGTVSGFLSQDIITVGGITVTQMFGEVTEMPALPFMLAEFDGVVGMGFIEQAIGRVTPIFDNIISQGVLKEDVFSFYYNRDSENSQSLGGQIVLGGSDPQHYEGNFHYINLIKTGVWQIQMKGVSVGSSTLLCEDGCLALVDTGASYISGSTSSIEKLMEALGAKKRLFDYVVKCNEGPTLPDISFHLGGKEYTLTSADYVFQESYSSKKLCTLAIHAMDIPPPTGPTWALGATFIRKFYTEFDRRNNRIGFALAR

Consider `CC[C@H](C)[C@H](NC(=O)C[C@H](N)[C@H](Cc1ccccc1)NC(=O)[C@@H](NC(=O)COc1cccc2ccccc12)C(C)C)C(=O)N[C@H](C(=O)OC)C(C)C` [Compound 8, Methyl (S)-2-[(2S,3S)-2-((3S,4S)-3-amino-4-{(S)-3-methyl-2-[2-(naphthalen-1-yloxy)-acetylamino]butyrylamino}-5-phenyl-pentanoylamino)-3-methylpentanoyl-amino]-3-methylbutyrate], for which the IC50 in assay [1] was 200 nM; on recombinant human renin, above 30000 nM.
The matching figures for `COC(=O)[C@@H](NC(=O)[C@H](Cc1ccccc1)NC(=O)C[C@H](N)[C@H](Cc1ccccc1)NC(=O)[C@@H](NC(=O)[C@H](CC(C)C)NC(=O)CC(C)C)C(C)C)C(C)C` [Compound 15, Methyl (S)-2-[(S)-2-((3S,4S)-3-amino-4-{(S)-3-methyl-2-[(S)-4-methyl-2-(3-methyl-butyrylamino)pentanoylamino]butyryl-amino)-5-phenylpentanoylamino)-3-phenyl-propionylamino]-3-methylbutyrate] (Isovaleryl-LV[X1]FV-OMe): 5.7 nM and above 30000 nM.
As to `COC(=O)[C@@H](NC(=O)[C@H](Cc1cccc2ccccc12)NC(=O)C[C@H](N)[C@H](Cc1ccccc1)NC(=O)[C@@H](NC(=O)[C@H](CC(C)C)NC(=O)CC(C)C)C(C)C)C(C)C` [Compound 28, Methyl (S)-2-[(S)-2-((3S,4S)-3-amino-4-{(S)-3-methyl-2-[(S)-4-methyl-2-(3-methyl-butyrylamino)pentanoylamino]butyryl-amino}-5-phenylpentanoylamino)-3-naphthalen-1-ylpropionylamino]-3-methylbutyrate] (Isovaleryl-LV[X1][1Nal]V-OMe), the IC50 in assay [1] is 3.7 nM; on recombinant human renin it was above 30000 nM.
The matching figures for `CC[C@H](C)[C@H](NC(=O)C[C@H](N)[C@H](Cc1ccccc1)NC(=O)[C@@H](NC(=O)[C@H](CC(C)C)NC(=O)CC(C)C)C(C)(C)C)C(=O)N[C@H](C(=O)OC)C(C)C` [Compound 31, Methyl (S)-2-[(2S,3S)-2-((3S,4S)-3-amino-4-{(S)-3,3-dimethyl-2-[(S)-4-methyl-2-(3-methylbutyrylamino)pentanoylamino]-butyrylamino}-5-phenylpentanoylamino)-3-methylpentanoylamino]-3-methylbutyrate] (Isovaleryl-L[Tle][X1]IV-OMe): 120 nM and above 30000 nM.
In the case of `CC(C)CCNC(=O)[C@H](C)NC(=O)C[C@H](N)[C@H](Cc1ccccc1)NC(=O)[C@@H](NC(=O)Cc1cccc(OC(F)(F)F)c1)C(C)C` [Compound 35, N-[(S)-1-(3-Methylbutylcarbamoyl)-ethyl]-(3S,4S)-3-amino-4-{(S)-3-methyl-2-[2-(3-trifluoromethoxyphenyl)acetylamino]-butyrylamino}-5-phenylpentanamide], the IC50 is 190 nM in assay [1] and above 30000 nM on recombinant human renin.
In the same order, the values of `CC[C@H](C)[C@H](NC(=O)C[C@H](N)[C@H](Cc1ccccc1)NC(=O)[C@@H](NC(=O)Cc1cccc(NS(C)(=O)=O)c1)C(C)C)C(=O)N[C@H](C(=O)OC)C(C)C` [Compound 9, Methyl (S)-2-[(2S,3S)-2-((3S,4S)-3-amino-4-{(S)-2-[2-(3-methanesulfonylamino-phenyl)-acetylamino]-3-methylbutyrylamino}-5-phenylpentanoylamino)-3-methyl-pentanoylamino]-3-methylbutyrate] are 81 nM and above 30000 nM.
As to `CC(C)CC(=O)N[C@@H](CC(C)C)C(=O)N[C@H](C(=O)N[C@@H](Cc1ccccc1)[C@@H](N)CC(=O)N[C@H](COc1cccnc1)C(C)C)C(C)C` [Compound 43, N-[(S)-2-Methyl-1-(pyridin-3-yloxymethyl)propyl]-(3S,4S)-3-amino-4-{(S)-3-methyl-2-[(S)-4-methyl-2-(3-methylbutyrylamino)-pentanoylamino]butyrylamino}-5-phenylpentanamide], the IC50 in assay [1] was 240 nM; on recombinant human renin, above 30000 nM.
As for `CC[C@H](C)[C@H](NC(=O)C[C@H](N)[C@H](Cc1ccccc1)NC(=O)[C@@H](NC(=O)[C@H](CC(C)C)NC(=O)CC(C)C)C(C)C)C(=O)NCc1ccccc1` [Compound 29, N-((1S,2S)-1-Benzylcarbamoyl-2-methylbutyl)-(S)-3-amino-4-{(S)-(S)-3-methyl-2-[(S)-4-methyl-2-(3-methylbutyrylamino)-pentanoylamino]butyrylamino}-5-phenylpentanamide], the IC50 is 180 nM in assay [1] and above 30000 nM at recombinant human renin.
Regarding `CC[C@H](C)[C@H](NC(=O)C[C@H](N)[C@H](Cc1ccccc1)NC(=O)[C@@H](NC(=O)Cc1cccc(OC(F)(F)F)c1)C(C)C)C(=O)N[C@H](C(=O)O)C(C)C` [Compound 32, (S)-2-[(2S,3S)-2-((3S,4S)-3-Amino-4-{(S)-3-methyl-2-[2-(3-trifluoromethoxyphenyl)-acetylamino]butyrylamino}-5-phenyl-pentanoylamino)-3-methylpentanoyl-amino]-3-methylbutyric acid], the IC50 in assay [1] was 12 nM; at recombinant human renin, above 30000 nM.
